Experimental data taken from BindingDB's records for doi:10.1111/j.1747-0285.2006.00365.x (Johnson & Johnson Pharmaceutical Research & Development, 2006).

Target: p53 binding protein (Homo sapiens, UniProt Q9H4C2)
Experiment: HDM2 Binding Assay
Text: Binding assay using 1,4-benzodiazepine-2,5-dione (BZD) scaffold and HDM2-p53 protein.

Sequence of p53 binding protein (Q9H4C2 whole entry): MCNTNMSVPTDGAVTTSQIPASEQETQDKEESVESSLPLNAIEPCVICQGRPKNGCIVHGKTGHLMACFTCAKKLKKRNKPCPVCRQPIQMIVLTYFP

Point of comparison: O=C(O)C(c1ccccc1)N1C(=O)c2cc(I)ccc2NC(=O)C1c1ccc(Cl)cc1 (stereo not given) [BZD Scaffold, 5], IC50 1.7 µM. Against it:
- O=C(O)C(c1ccccc1)N1C(=O)c2cc(I)ccc2NC(=O)C1c1ccccc1 (stereo not given) [BZD Scaffold, 3] — 17-fold higher, 29 µM
- O=C(O)C(c1ccccc1)N1C(=O)c2ccccc2NC(=O)C1c1ccccc1 (stereo not given) [BZD Scaffold, 1] — higher, > 125 µM
- CC(C)c1ccc2c(c1)C(=O)N(C(C(=O)O)c1ccc(Cl)cc1)C(c1ccc(Cl)cc1)C(=O)N2 (stereo not given) [BZD Scaffold, 2] — 1.7-fold lower, 1 µM
- O=C(O)C(c1ccccc1)N1C(=O)c2cc(I)ccc2NC(=O)C1c1ccc(C(F)(F)F)cc1 (stereo not given) [BZD Scaffold, 4] — 2.2-fold higher, 3.8 µM
